Experimental data published in US6951655B2, “Pro-micelle pharmaceutical compositions” (IMI Biomed, Inc., priority 2001, dated 2005).

What was measured:
[1] = test system: rabbits; assay: Blood glucose in rabbits after i.p. administration before glucose challenge; assay type: in vivo, rabbit; conditions: i.p. 15 minutes before glucose challenge of 250 mg/kg, FIG. 10
Experimental: FIG. 10 depicts blood glucose when a standard regular insulin solution (0.3 ml of 3.1 IU/ml) or an extraction of the pro-micelle (2.5 ml of 0.4 IU/ml) was administered intraperitonally (i.p.) to rabbits 15 minutes before a glucose challenge of 250 mg/kg.

[2] = test system: rabbits; assay: Blood glucose in rabbits after i.v. injection before glucose challenge; assay type: in vivo, rabbit
Experimental: FIG. 11 depicts blood glucose levels when a standard regular insulin (0.2 ml of 3.1 IU/ml) or an extraction of the pro-micelle (1.5 ml. of 0.4 IU/ml) was intravenously (i.v.) injected into rabbits one minute before a glucose challenge of 250 mg/kg. […] With the formulation of the invention, a hypoglycemic effect was noticed within 35 minutes, and lasted for the duration of the experiment of 120 minutes or more.

## standard regular insulin: Standard regular insulin solution, 3.1 IU/ml, comparator
[1]
  effect on blood sugar after i.p. injection: decreased blood sugar
[2]; i.v.
  duration of hypoglycemic effect: short in duration
[2]; i.v. one minute before glucose challenge of 250 mg/kg, FIG. 11
  blood glucose course after i.v. injection: rapidly decreased from 20 to 45 minutes
[2]; i.v., within 90 minutes of the insulin injection
  blood glucose relative to control level within 90 minutes of injection: 10-30 % of the control level
